Experimental data as given in patent US8389484B2, “Methods for targeting RNA molecules” (priority 1999, dated 2013).
In the oligonucleotide strings, read from the 5' end, every base follows the letter of its sugar. An asterisk marks phosphorothioate; unmarked linkages are phosphodiester. Other units and linkages are bracketed, terminal groups are in braces. A string of capitals states the bases alone. d = 2'-deoxy (DNA)

Tests used:
[1] = system: 1674U-allele of endogenous RPA70 mRNA; test: Oligonucleotide-directed cleavage of endogenous RPA70 mRNA in HeLa cell extracts (Northern blot); format: biochemical, human; details: for cleavage of matched allele versus singly mismatched allele: HeLa (1674U) versus Calu-1 (1674C) extracts
Method: (§1) FIG. 4. Northern blot analysis of oligonucleotide-directed cleavage of endogenous RPA70 mRNA in human cell extracts. The extracts were prepared from HeLa and Calu-1 cells that express only the 1674U- or the 1674 C-allele of the RPA70 mRNA, respectively. In addition to PS-oligos 1, 2, 3, and 6 as described in FIG. 3, oligo 7 (5′ […] 3′; SEQ ID NO:1) was used in the assay as a non-allele-specific control oligo that targets nucleotides 2230-2249 of the 3′-UTR of RPA70 mRNA. a, Targeting the 1674U/C polymorphic site by oligos 1 and 2. b, Targeting the site of different allelic structures around nucleotide 1656 by oligos 3 and 6. Reactions were done in duplicates. The averaged data points of the duplicates are plotted with standard deviations as error bars, and are shown below the corresponding Northern blots. Intact RPA70 mRNA levels were normalized to GAPDH levels and expressed as a percentage of no-oligo control for each experiment.
Oligonucleotide-directed Cleavage of Endogenous RPA70 mRNA in Human Cell Extracts. Human tumor cell lines HeLa and Calu-1 (American Type Culture collection) were genotyped for SNPs in RPA70 cDNA by RFLP analysis and by sequencing. […] HeLa cells were cultured in monolayers in minimum essential medium (Gibco BRL), and Calu-1 cells were cultured in monolayers in McCoy's 5A medium (Sigma). Both media were supplemented with 10% heat inactivated fetal bovine serum (JRH Biosciences), 100 units/mL penicillin-100 μg/mL streptomycin (Gibco BRL), and 2 mM L-glutamine (Gibco BRL). Both cell lines were grown under 5% CO2/95% air in a humidified incubator at 37° C. For preparation of cell extracts, the cells were grown to 80-90% confluence, typsinized, and washed twice with the complete medium as specified above and twice with phosphate buffered saline (Gibco BRL). Approximately 5×10^7 Cells were lysed in a 15 mL tissue grinder with a Teflon pestle (Wheaton) in the presence of 1.5 mL lysis buffer (20 mM Tris.HCl, pH 7.5, 420 mM NaCl, 2 mM MgCl2, 0.2 mM EDTA, 1 mM DTT, 0.5 mM phenylmethyl sulfonylfluoride (PMSF), and 25% glycerol). The sodium salt concentration was chosen to facilitate the disruption of the nuclear membrane to release RNase H from nuclei (21). Up to 200 strokes were needed to completely lyse the cells, as checked using a hemacytometer. The cell lysate was centrifuged at 14,000, rpm for 10 min at 4° C., and cell extracts were obtained by transferring supernatant to clean microcentrifuge tubes and freezing immediately at −80° C. Total protein concentration of cell extracts was determined using the Bradford assay (Bio-Rad). For oligodeoxynucleotide-directed cleavage of endogenous mRNA reactions, cell extracts were diluted to a total protein concentration of 3 mg/mL with the lysis buffer. After the addition of a 10× PS-oligo solution to the diluted cell extracts, the reaction mixture was incubated for 40 min at 37° C. The level of intact RPA70 mRNA was determined by total RNA isolation and Northern blot hybridization using procedures described previously (22, 23), and followed by phosphoimager analysis. Northern probes specific for RPA70 mRNA were synthesized by random primed [α-^32P]dCTP-labeling of a cDNA probe corresponding to nucleotides 1519-2080 of human RPA70 mRNA. To account for variability in the amount of total RNA loaded into individual gel wells for Northern analysis, the level of glyceraldehyde 3-phosphate dehydrogenase (GAPDH) mRNA was also measured by first stripping the RPA70 mRNA probe, and then reprobing the same Northern blot with a random primed [α-^32P]dCTP-labeled cDNA probe corresponding to a 600 nucleotide sequence of human GAPDH (Stratagene).
Allele-specific Cleavage of Endogenous RPA70 mRNA in Human Cell Extracts. We next performed oligo-directed cleavage of the full-length, endogenous RPA70 mRNA in whole cell extracts prepared from two genotyped human cell lines, HeLa (1674U) and Calu-1 (1674C). […]

[2] = system: 1674U- and 1674C-alleles of RPA70 mRNA; test: Cell transfection assay (J. P. Basilion, unpublished results); format: cell-based, human; details: previously shown
[3] = system: U- and C-alleles of the 544-mer fragment of the RPA70-1674U/C mRNA; test: E. coli RNase H digestion assay, oligo-directed cleavage in a purified system; format: biochemical, human; details: for cleavage efficiency, matched allele versus mismatched allele: 544-mer RPA70 mRNA fragments, oligos target the SNP at position 1674; for reduction in the cleavage of both alleles as compared to parent oligo 3: 544-mer U- and C-alleles, E. coli RNase H; for enhancement in allele discrimination versus parent oligo 3: hairpin oligos, under the experimental conditions
Description: FIG. 3. E. coli RNase H digestion of both alleles of the 544-mer fragment of the RPA70-1674U/C mRNA. a, Nucleotide sequence of the PS-oligos used in the assay. Oligos 1 and 2 (SEQ ID NOs:6 and 7, respectively) target the polymorphic site; the bases opposing the polymorphism in the mRNA are shown in boldface. Oligos 3 and 6 (SEQ ID NOs:8 and 11, respectively) target the site of different allelic structures around nucleotide 1656. The terminal residues of oligos 1, 2, 3, and 6 (SEQ ID NOs:6, 7, 8, and 11, respectively) are labeled according to the positions of the complementary nucleotides in RPA70 mRNA. Oligos 4 and 5 (SEQ ID NOs:9 and 10, respectively) share the same target hybridization sequence as 3 (SEQ ID NO:8), but with additional nucleotides (shown underlined) added to facilitate folding into hairpin structures for intended enhancement in allele discrimination. b, E. coli RNase H digestion patterns of the 5′-^32P-labeled U- and C-alleles hybridized to the oligos in a. Cleavage sites were confirmed by running on the same gel RNase T1 digestion ladders for the two alleles (not shown): they are centered at position 1674 for oligos 1 and 2 (SEQ ID NOs:6 and 7), 1650 for oligos 3-5 (SEQ ID NOs:8-10), and 1654 for oligo 6 (SEQ ID NO:11). c, Comparison of percent cleavages of the U- and C-alleles calculated from b. Oligo-dependent-cleavage bands were integrated as a percentage of total RNA in each lane with the overlapping background-cleavage bands subtracted. Variations in sample loading to each lane were internally corrected by measuring percent cleavage instead of absolute band intensity.
E. coli RNase H Digestion Assay. Phosphorothioate oligodeoxyribonucleotides (PS-oligos) were employed in our studies because of their enhanced stability against nucleases (20). PS-oligos were chemically synthesized and desalted on C-18 cartridges by Synthetic Genetics. One, pmol of 5′-^32P-labeled mRNA was renatured in 12 μL RNase H buffer (20 mM Tris.HCl, pH 7.5, 10 mM KCl, 5 mM MgCl2, 0.1 mM dithiothreitol (DTT), 5% glycerol, and 10 μg phenol-extracted glycogen) by heating for 1 min at 85° C., then cooling for 5 min at room temperature followed by 10 min at 37° C. E. coli RNase H (0.6 units, Pharmacia) was then added to the renatured mRNA and incubated for 5 min at 37° C. PS-oligos (5 pmol in RNase H buffer) were subsequently added, and the reaction mixture (15 μL total) incubated for 20 min at 37° C. The digestion products were fractionated on a 4% denaturing polyacrylamide gel, and the cleavage patterns visualized by autoradiography. RNA levels were quantified using a phosphoimager (Fujifilm Model FLA-2000).
Allele-specific Cleavage of RPA70 mRNA in a Purified System. We first used an in vitro assay with E. coli RNase H and the in vitro transcribed 544-mer RPA70 mRNA fragments to examine the efficiency and allele specificity of structure-based targeting as compared to directly targeting the 1674U/C polymorphism. […] SNP-targeting oligos 1 and 2 were previously optimized for allele discrimination in a cell transfection assay (J. P. Basilion, unpublished results). Each of the SNP-targeting oligos is perfectly matched only with one of the two alleles; it is singly mismatched with the other allele. Single base mismatches formed between the SNP-targeting oligos and their respective non-targeting alleles contribute to the allele discrimination observed previously. Structure-targeting oligos 3 and 6 match perfectly with both alleles, and were designed to hybridize maximally with the single-stranded 1656 region of the U-allele, while avoiding the 1664 region which is slightly accessible in both alleles (FIG. 1b). Four and six additional nucleotides were added to the 5′-end of oligo 3 to produce oligos 4 and 5, respectively, to facilitate folding into hairpin structures for enhanced allele discrimination (27).

[4] = system: 1674C-allele of endogenous RPA70 mRNA; test: Oligonucleotide-directed cleavage of endogenous RPA70 mRNA in Calu-1 cell extracts (Northern blot); format: biochemical, human; details: 300 nM oligo, Calu-1 (1674C) extracts
Method: as §1
Oligonucleotide-directed Cleavage of Endogenous RPA70 mRNA in Human Cell Extracts. […] Total protein concentration of cell extracts was determined using the Bradford assay (Bio-Rad). […] The level of intact RPA70 mRNA was determined by total RNA isolation and Northern blot hybridization using procedures described previously (22, 23), and followed by phosphoimager analysis. […]

## 5′ TGGTCTGCAGTTAGGGTCAG 3′ (phosphorothioate backbone, further chemistry not given here) [Oligo 7]
[1]; HeLa versus Calu-1 extracts, 100 to 600 nM
  response of the two cell types to the control oligo: responded similarly
[2]
  targeting efficiency on the 1674U- and 1674C-alleles: equally high efficiency

## Oligo 1: Phosphorothioate oligodeoxyribonucleotide 20-mer (SEQ ID NO:6) targeting the RPA70 1674U/C polymorphic site, U-allele specific (dT*dA*dG*dC*dT*dT*dC*dA*dG*dC*dA*dG*dA*dC*dT*dC*dC*dT*dG*dG)
[3]
  cleavage efficiency, matched allele versus mismatched allele: greater for their respective matched alleles than for the mismatched alleles
[1]; 300 nM oligo, HeLa (1674U) extracts
  extent of cleavage of the matched allele (U-allele): the majority of the matched allele remained uncleaved
[1]; 300 nM oligo
  cleavage of matched allele versus singly mismatched allele: equally or slightly more cleaved than the singly mismatched allele

## Oligo 2: Phosphorothioate oligodeoxyribonucleotide 18-mer (SEQ ID NO:7) targeting the RPA70 1674U/C polymorphic site, C-allele specific (dG*dC*dT*dT*dC*dA*dG*dC*dG*dG*dA*dC*dT*dC*dC*dT*dG*dG)
[4]
  extent of cleavage of the matched allele (C-allele): the majority of the matched allele remained uncleaved
[3]
  cleavage efficiency, matched allele versus mismatched allele: greater for their respective matched alleles than for the mismatched alleles
[1]; 300 nM oligo
  cleavage of matched allele versus singly mismatched allele: equally or slightly more cleaved than the singly mismatched allele

## Oligo 3: Phosphorothioate oligodeoxyribonucleotide 20-mer (SEQ ID NO:8) targeting the site of different allelic structures around nucleotide 1656 of RPA70 mRNA (dC*dA*dA*dG*dT*dC*dA*dC*dC*dC*dA*dC*dT*dG*dA*dT*dT*dC*dT*dC)
[4]; intact mRNA normalized to GAPDH, % of no-oligo control
  non-target C-allele intact: more than 90%
[1]; 300 nM oligo, HeLa (1674U) extracts, intact mRNA normalized to GAPDH, % of no-oligo control
  U-allele remaining uncleaved: 15%
[1]; HeLa versus Calu-1 extracts, percentage of intact mRNA evaluated, 100, 300 and 600 nM
  allele discrimination relative to that obtained by directly targeting the polymorphism with 20-mer 1: two- to sixfold

## Oligo 4: PS-oligo (SEQ ID NO:9), oligo 3 with four additional 5′-end nucleotides to facilitate folding into a hairpin structure (GAATCAAGTCACCCACTGATTCTC; all phosphorothioate, sugars by position and methylation of C not given here)
[3]
  reduction in the cleavage of both alleles as compared to parent oligo 3: 23%
  enhancement in allele discrimination versus parent oligo 3: no enhancement in allele discrimination

## Oligo 5: PS-oligo (SEQ ID NO:10), oligo 3 with six additional 5′-end nucleotides to facilitate folding into a hairpin structure (GAGAATCAAGTCACCCACTGATTCTC; all phosphorothioate, sugars by position and methylation of C not given here)
[3]
  reduction in the cleavage of both alleles as compared to parent oligo 3: 36%
  enhancement in allele discrimination versus parent oligo 3: no enhancement in allele discrimination

## Oligo 6: Phosphorothioate oligodeoxyribonucleotide 15-mer (SEQ ID NO:11) targeting the site of different allelic structures around nucleotide 1656 of RPA70 mRNA (dC*dA*dA*dG*dT*dC*dA*dC*dC*dC*dA*dC*dT*dG*dA)
[1]; HeLa versus Calu-1 extracts, all three oligo concentrations (100, 300, 600 nM)
  allele discrimination compared with the other oligos: better allele discrimination than the SNP-targeting oligos 1 and 2
